According to patent US20140349943A1, “TOPICAL FORMULATIONS OF CHEMERIN C15 PEPTIDES FOR THE TREATMENT OF DERMATOLOGICAL CONDITIONS” (priority 2011, published 2014):
Values joined by “and” are separate entries in the source; they are usually repeats but may differ in a detail not shown here. Identical values can stand only once. Peptide text beside a SMILES is read from it.

Columns and labels:
[1] = tested on: IFNγ/LPS stimulated human macrophages; experiment: Cytokine secretion by IFNγ/LPS stimulated human macrophages (Luminex); format: cell-based
Description: In this example, the ability of human chemerin C15 to inhibit secretion of cytokines from activated human macrophages was examined. For this experiment, the activity of the human chemerin C15 peptide […] (SEQ ID NO: 1) was compared to that of the human chemerin C17 peptide […] (SEQ ID NO: 25). The C15 and C17 peptides were synthesized by solid phase synthesis using BOP coupling of FMOC protected amino acids with final cleavage from the resin with TFA. Peptides were purified by reverse phase C18 chromatography using a water/acetonitrile gradient.
Human macrophages were derived from human CD14+ monocytes obtained from 3 donors. On Day 1, the isolated monocytes were thawed and seeded in triplicate for each group in 1 ml RPMI 1640 GlutaMAX™ media (supplemented with 10% FBS, 100 U/ml penicillin, 100 μg/ml streptomycin, 0.05 μM mercaptoethanol, 1% NEAA and 1% sodium pyruvate) per well of a 24 well cell culture dish at a cell concentration of 5×10^5 cells/ml. M-CSF was added to each well to give a final concentration of 25 ng/ml. Cells were grown for 7 days at 37° C. with 5% CO2 to differentiate the cells into macrophages. Media and M-CSF were replaced after 4 days.
Following differentiation, the media containing M-CSF was removed. The cells were washed and vehicle control, dexamethasone, C15 or C17 were added to the appropriate wells. The test peptides were dissolved in 50% DMSO/water prior to addition. C-15 (MW 1669; 16.7 mg/ml) was added to a final concentration of […] and C17 (MW 1904; 19.0 mg/ml) was added to a final concentration of 1 μM. Dexamethasone was added to a final concentration of 1 μM. Following addition to the wells, the plates were incubated at 37° C. with 5% CO2 for 1 hour. An equal volume of complete media was added to the non-treated wells. Control or test treatments were maintained at the correct concentration throughout the assay.
IFNγ (final concentration 20 ng/ml) was then added to the appropriate wells. Following IFNγ addition, the plates were incubated at 37° C. with 5% CO2 for 4 hours. The concentration of vehicle control, test treatments or dexamethasone was maintained during IFNγ stimulation. LPS (final concentration 10 ng/ml) was then added to the appropriate wells. Following LPS addition, the plates were incubated at 37° C. with 5% CO2 for 15 hours. After 6 hours, ˜60 μl of culture supernatant was removed from all wells and stored at −80° C. for analysis. The concentration of vehicle control, test treatments or dexamethasone was maintained during LPS stimulation.
At 15 hours post LPS stimulation, the remaining cell culture supernatant was harvested and stored at −80° C. until assayed. The concentration of vehicle control, test treatments or dexamethasone was maintained until culture termination.
Cell culture supernatants taken at 6 hours and 15 hours post LPS addition were assayed for the production of RANTES, TNFα, IL-1β, IL-6, IL-10, IL-12p40 (subunit common to IL-12 and IL-23) and IL-15 (negative control) using Luminex® technology (Procarta human cytokine kit; Panomics) following the manufacturer's instructions.
In this experiment, the importance of the FYFP motif (SEQ ID NO: 2) in the human chemerin C15 peptide on anti-inflammatory activity was examined. The ability of the human chemerin C15 peptide […] (SEQ ID NO: 1) was compared to that of a substituted chemerin C15 peptide having the amino acid sequence […] (SEQ ID NO: 27), where the second phenylalanine in the peptide is modified to alanine. The experiment was performed as described in Example 1. 0.1 pM 0.5 pM and 1 pM concentrations of the C15 and C15 mutant peptides were tested. Cytokine expression was determined as described in Example 1.

[2] = Franz cell skin penetration, C15 in 50% DMSO in water; format: in vitro ADME, human
Description: The objective of the study was to determine whether human C15 peptide would diffuse through in vitro human skin maintained under flow-through conditions in Franz cells with 50% DMSO in water. 50% DMSO is considered an acceptable maximum for penetration enhancement.
The samples used in the study were mouse and human chemerin C15 peptides stored at −20 C°. The skin sample used was human skin obtained from mammoplasty. A frozen sample was stored at −20 C.° for 30 days. A fresh sample was obtained in tissue media and antibiotics and used within 3 days.
1. A 1% solution of mouse C15 in 50% DMSO in water was applied to previously frozen human skin to develop the HPLC method for subsequent tests with human C15. This was done in triplicate. 2. A 2% solution of human C15 in 50% DMSO in water was applied to fresh human skin and epidermis, dermis, and receptor fluid were analyzed for C15.
Skin was rinsed, blotted dry, cut into circular pieces and conditioned in the Franz cell for 2 hours prior to C15 application. Flow-through, water-jacketed diffusion cells that exposed a skin area of 2.54 cm2 were used. The cells were maintained at 37° C., operated under static conditions and stirred at 700 rpm for 24 hr. PBS (pH=7.0) was used as the receptor fluid. C15 solutions in 50% DMSO in water was prepared on the day of the experiments.
400 μl of each C15 solution was pipetted in aliquots of 100 μl onto the skin surface and the diffusion cell sealed with parafilm. Diffusion cells were run in triplicate with a single control consisting of skin treated with vehicle only. Receptor fluid (≈5 mL) was collected at the end of 24 hours and concentrated by evaporation prior to analysis. The skin was blotted dry, tape-stripped three times to remove residual C15 and heat-separated at 50° C. into epidermis and dermis. Epidermis was sonicated in 5% TCA for 10 minutes and the supernatant analyzed. Dermis was minced and homogenized in 5% TCA and the supernatant concentrated and analyzed.
For the mouse C15 experiment only the receptor fluid was analyzed.
A reverse-phase HPLC method was developed to quantify Human C15 (Shimamura et al., 2009). The separation was achieved using a Phenomenex Gemini™ C18 column (Cat. No. 00B-4439-E0, 4.6×50 mm, 3 μm) at 40° C. in the Shimadzu 20A system. The mobile phase was mixed with (A) 0.1% formic in water and (B) 0.1% formic acid in acetonitrile. The separation was conducted using a gradient system of 80% A+20% B to 10% A+90% B (0-3 min) and 10% A+90% B (3-3.5 min) at a flow rate of 0.8 ml/min. The injection volume was 5 μl. The eluent was monitored at 275 nm Human C15 was observed as a single peak in the chromatogram with retention time at about 1.8 min. The quantification of Human C15 was achieved by external standard calibration. […]

[3] = Example 3, 0.1 pM 0.5 pM and 1 pM tested, FIG. 3
[4] = 2% human C15 in 50% DMSO, fresh human skin, % absorbed of the applied dose, listed as C15

Question: What does the source list for `C[C@H](N)C(=O)NCC(=O)N[C@@H](CCC(=O)O)C(=O)N[C@@H](CC(=O)O)C(=O)N1CCC[C@H]1C(=O)N[C@@H](Cc1c[nH]cn1)C(=O)N[C@@H](CO)C(=O)N[C@@H](Cc1ccccc1)C(=O)N[C@@H](Cc1ccc(O)cc1)C(=O)N[C@@H](Cc1ccccc1)C(=O)N1CCC[C@H]1C(=O)NCC(=O)N[C@@H](CCC(N)=O)C(=O)N[C@@H](Cc1ccccc1)C(=O)N[C@@H](C)C(=O)O` [C15 (human)] (H-AGEDPHSFYFPGQFA-OH; N-terminus and C-terminus assumed)?
Answer: inhibition of newly synthesized RANTES (difference between the 6 and 15 hour time points) ([1]; 1 pM): approximately 90%; decrease in IL-10 ([1]; C15 peptide treatment): ~25%; percent inhibition of RANTES expression [1, 3]: 47%; percent inhibition of TNFα expression [1, 3]: 61%; inhibition of cytokine production/secretion in vitro ([1]; within 15 hours): 40-60%; % C15 in skin compartment, epidermis [2, 4]: 8.76% and 7.38% and 2.67%; % C15 in skin compartment, receptor fluid [2, 4]: 0.02% and 0.09% and 0.01%; penetration through human skin, in words ([2]; in vitro flow-through conditions, 50% DMSO in water): does penetrate through human skin

Question: Which “inhibition of cytokine production” value ([1]; 1 μM) does the source give for `C[C@H](N)C(=O)NCC(=O)N[C@@H](CCC(=O)O)C(=O)N[C@@H](CC(=O)O)C(=O)N1CCC[C@H]1C(=O)N[C@@H](Cc1c[nH]cn1)C(=O)N[C@@H](CO)C(=O)N[C@@H](Cc1ccccc1)C(=O)N[C@@H](Cc1ccc(O)cc1)C(=O)N[C@@H](Cc1ccccc1)C(=O)N1CCC[C@H]1C(=O)NCC(=O)N[C@@H](CCC(N)=O)C(=O)N[C@@H](Cc1ccccc1)C(=O)N[C@@H](C)C(=O)N[C@@H](Cc1ccccc1)C(=O)N[C@@H](CO)C(=O)O` [C17 (human)] (H-AGEDPHSFYFPGQFAFS-OH; N-terminus and C-terminus assumed) here?
Answer: The value was “did not exhibit any significant inhibition”.

Question: With `CC(C)C[C@H](NC(=O)[C@H](Cc1ccccc1)NC(=O)[C@H](Cc1ccc(O)cc1)NC(=O)CNC(=O)[C@H](Cc1c[nH]cn1)NC(=O)[C@@H]1CCCN1C(=O)[C@H](CC(=O)O)NC(=O)[C@H](CCC(=O)O)NC(=O)CNC(=O)[C@H](C)N)C(=O)N1CCC[C@H]1C(=O)NCC(=O)N[C@@H](CCC(N)=O)C(=O)N[C@@H](Cc1ccccc1)C(=O)N[C@@H](C)C(=O)O` [mC15] (H-AGEDPHGYFLPGQFA-OH; N-terminus and C-terminus assumed) as the molecule, how does the “C15 receptor fluid level” value ([2]; 1% mouse C15 in 50% DMSO, frozen human skin) read?
Answer: Its value is 0.3%.
